# The supplement of paper PMC10307832
# Tests used:
# Assay in all cases: relative viability (nuclei count vs DMSO), 5 days (fraction); higher = more cells survive
# Zosuquidar + Decitabine = compound: O[C@@H](COc1cccc2ncccc12)CN1CCN([C@@H]2c3ccccc3[C@@H]3[C@H](c4ccccc42)C3(F)F)CC1 [Zosuquidar] + Nc1ncn([C@H]2C[C@H](O)[C@@H](CO)O2)c(=O)n1 [Decitabine] (partner 2 µM)
# Outline: (§1)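 Dosing by pin tool came one day after lung cancer cell lines were seeded in 1536-well plates, using either one drug or a fixed anchor-drug dose plus five library-drug doses (not always all listed) in √10 steps. After 5 days, nuclei were counted on 4× images. Relative viability is treated-well nuclei count divided by vehicle-well nuclei count, and values are medians of duplicate plates.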
# [1] = compound: COc1cc2nccc(Oc3ccc(NC(=O)C4(C(=O)Nc5ccc(F)cc5)CC4)cc3)c2cc1OC [Cabozantinib] + O=C(CCCCCCC(=O)Nc1ccccc1)NO [Vorinostat] (partner 1 µM)
# Outline: as §1
# [2] = compound: COc1cc2nccc(Oc3ccc(NC(=O)C4(C(=O)Nc5ccc(F)cc5)CC4)cc3)c2cc1OC [Cabozantinib] + CS(=O)(=O)N1CCN(Cc2cc3nc(-c4cccc5[nH]ncc45)nc(N4CCOCC4)c3s2)CC1 [Pictilisib] (partner 1 µM)
# Outline: as §1
# Kobe2602 + Olaparib = compound: C1=CC(=CC=C1NC(=S)NNC2=C(C=C(C=C2[N+](=O)[O-])C(F)(F)F)[N+](=O)[O-])F [Kobe2602] + O=C(c1cc(Cc2n[nH]c(=O)c3ccccc23)ccc1F)N1CCN(C(=O)C2CC2)CC1 [Olaparib] (partner 8 µM)
# Outline: as §1
cell line,measurement,setting,value
UMC-11,relative viability,Zosuquidar + Decitabine; first compound 0.01 µM,0.567
same,relative viability,Zosuquidar + Decitabine; first compound 0.03162 µM,0.575
same,relative viability,Zosuquidar + Decitabine; first compound 0.1 µM,0.538
same,relative viability,Zosuquidar + Decitabine; first compound 0.3162 µM,0.666
same,relative viability,Zosuquidar + Decitabine; first compound 1 µM,0.59
same,relative viability,[1]; first compound 0.02 µM,0.302
same,relative viability,[1]; first compound 0.06325 µM,0.336
same,relative viability,[1]; first compound 0.2 µM,0.37
same,relative viability,[1]; first compound 0.6325 µM,0.323
same,relative viability,[1]; first compound 2 µM,0.332
same,relative viability,[2]; first compound 0.02 µM,0.804
same,relative viability,[2]; first compound 0.06325 µM,0.96
same,relative viability,[2]; first compound 0.2 µM,0.8
same,relative viability,[2]; first compound 0.6325 µM,0.782
same,relative viability,[2]; first compound 2 µM,0.76
same,relative viability,Kobe2602 + Olaparib; first compound 0.2 µM,0.404
same,relative viability,Kobe2602 + Olaparib; first compound 0.6325 µM,1.07
same,relative viability,Kobe2602 + Olaparib; first compound 2 µM,0.384
same,relative viability,Kobe2602 + Olaparib; first compound 6.325 µM,0.366
same,relative viability,Kobe2602 + Olaparib; first compound 20 µM,1.02
